Experimental data as given in PMC8362065, “Easily Available, Amphiphilic Diiron Cyclopentadienyl Complexes Exhibit in Vitro Anticancer Activity in 2D and 3D Human Cancer Cells through Redox Modulation Triggered by CO Release” (Chemistry (Weinheim an Der Bergstrasse, Germany), 2021).
One block for each compound: values may come before it.

How the values were obtained:
[1] = system: 3D cell spheroids of human pancreatic (PSN‐1) cancer cells; assay: Acid phosphatase (APH) assay, 3D spheroid culture; format: cell-based; details: PSN‐1 spheroids, 72 h, APH test
Text: (§1) The remarkable cell‐killing effect observed in 2D cultured cells prompted us to evaluate the in vitro antitumor activity of the complexes on 3D cell cultures. Differently from 2D monolayer culture, 3D spheroid cell culture systems comprise cancer cells in various cell growth stages. Consequently, the multicellular cancer spheroid model is recognized to better reflect the tumour mass in vivo regarding drug permeation, cell interactions, gene expression, hypoxia and nutrient gradients with respect to monolayer cell cultures, making 3D models more predictive than conventional 2D monolayer cultures in screening antitumor drugs.[38] Table 6 summarizes the IC50 values obtained after treatment of 3D cell spheroids of human ovarian (2008) and pancreatic (PSN‐1) cancer cells with the diiron complexes and cisplatin.
(§2) Spheroid cultures. Spheroid cultures were obtained by seeding 2.5×10^3 cells/well in round bottom non‐tissue culture treated 96 well‐plate (Greiner Bio‐one, Kremsmünster, Austria) in phenol red free RPMI‐1640 medium (Sigma Chemical Co.), containing 10 % FCS and supplemented with 20 % methyl cellulose stock solution.
(§3) Acid phosphatase (APH) assay. An APH modified assay was used for determining cell viability in 3D spheroids, as previously described.[58] IC50 values were calculated with a four‐parameter logistic (4‐PL) model. All the values are the means ± SD of not less than four independent experiments.

[2] = system: 3D cell spheroids of human ovarian (2008) cancer cells; assay: Acid phosphatase (APH) assay, 3D spheroid culture; format: cell-based; details: 2008 spheroids, 72 h, APH test
Text: as §1, §2, §3

[3] = Stability in cell culture medium (DMEM) at 37 °C by 1H NMR; format: physicochemical; details: DMEM-d (6.6 % CD3OD)
Protocol: Next, the stability of the diiron compounds in a cell culture medium (DMEM) solution at 37 °C, over a shorter time range (24 h), was assessed by ^1H NMR.
(§4) Stability in water (D2O) and cell culture medium. The procedures are described in the Supporting Information, and data are collected in Table S3.
(§5) Table S3. Stability of diiron complexes in D2O, D2O/CD3OD, DMSO-d6/D2O and cell culture medium (DMEM-
(§6) d/CD3OD) solution at 37 °C calculated by 1H NMR (Me2SO2 internal standard).
(§7) % starting material (72 h) % starting material
(§8) Compound D O D O/CD OD DMSO-d /D O DMEM-d
(§9) [a] X = I for the stability in D 2O, X = CF3SO3 for the stability in cell culture medium. [b] Stability in D 2O and […]

[4] = Stability in D2O, D2O/CD3OD and DMSO-d6/D2O at 37 °C by 1H NMR; format: physicochemical; details: D2O
Protocol: A detailed study on the behaviour of a selection of the diiron complexes in aqueous media was undertaken. Experimental procedures are provided in the Experimental Section and in the Supporting Information, with data collected in Tables 3, S3 and S4. […] The octanol/water partition coefficients (log P ow) were measured by a UV/Vis method and fall in between 0 and −1, reflecting an amphiphilic or slightly hydrophilic character. […] Conversely, those complexes with aromatic groups (i. e., 1H‐indol‐6‐yl, 2‐naphthyl and bis‐benzyl in [2A]^+, [3G]^+, [4G]^+ and [5H]^+) are less soluble in water and display increased affinity for n‐octanol (log P ow≈0). The diiron compounds are inert in aqueous solution at room temperature, and undergo a slow degradation at 37 °C. Under such conditions, a variable amount (50 to 86 %; Table S3) of the starting material was detected by ^1H NMR in D2O or D2O/CD3OD mixtures after 72 h.[33] During this time, the precipitation of a brown solid was observed, which in one case (from a [2C]CF3SO3 solution) was separated and identified as γ‐Fe2O3 by Raman analysis. In addition, headspace GC analyses performed on 5 % MeOH aqueous solutions of the compounds maintained at 37 °C allowed the identification and quantitation of the carbon monoxide released over a 48 h period (Table S4). These facts indicate that the thermal degradation process in aqueous solution leads to the progressive disassembly of the organometallic scaffold.[16] The presumed, controlled release of the iron centres (converted to iron oxide, see above) and carbon monoxide are two aspects that deserve attention with reference to the biological activity: note that the decay of ferrocene drug candidates into Fe^II ions was previously associated to their cytotoxicity,[34] while the activity of various iron carbonyl complexes was correlated to CO dissociation in the physiological media.[35]
as §4, §5, §6, §7, §8, §9

[5] = Octanol/water partition coefficient, shake-flask method and UV/Vis
Protocol: Octanol/water partition coefficients (log Pow ). Partition coefficients (P ow; IUPAC: K D partition constant[53]), defined as P ow=corg/caq, where corg and caq are molar concentrations of the selected compound in the organic and aqueous phase, respectively, were determined by the shake‐flask method and UV/Vis measurements.[[16a], [54]] Deionized water and octan‐1‐ol were vigorously stirred for 24 h, to enable saturation of both phases, then separated by centrifugation. A stock solution of the selected Fe compound (ca. 2 mg) was prepared by first adding acetone (50 μL, to help solubilization), followed by water‐saturated octanol (2.5 mL). The solution was diluted with water‐saturated octanol (ca. 1 : 3 v/v ratio, cFe2 ≈10^−4 M, so that 1.5≤A≤2.0 at λ max) and its UV/Vis spectrum was recorded ( A0/org ). An aliquot of the solution (V org=1.2 mL) was transferred into a test tube and octanol‐saturated water (V org=V aq=1.2 mL) was added. The mixture was vigorously stirred for 30 min at 21 °C then centrifuged (RCF 805, 5 min; Hettich EBA 8G). The UV/Vis spectrum of the organic phase was recorded ( Af/org ) and the partition coefficient was calculated as P ow= Af/org /( A0/org g− Af/org ) where A0/org and Af/org are the absorbance in the organic phase before and after partition with the aqueous phase, respectively.[53] For [2B]BF4, [2C]Cl and [3F]CF3SO3 an inverse procedure was followed, starting from a solution of the compound in octanol‐saturated water. The partition coefficient was calculated as P ow=( A0/aq − Af/aq )/ Af/aq where A0/aq and Af/aq are the absorbance in the aqueous phase before and after partition with the organic phase, respectively.

MCF‐7 ADR cells = assay: MTT assay, multidrug-resistant cancer cell model overexpressing P-gp; format: cell-based, human
Protocol: The antiproliferative activity was also investigated in a multidrug‐resistant cancer cell model overexpressing P‐gp (MCF‐7 ADR cells).
(§10) Compounds [2B]BF4, [2C]CF3SO3, [2D]CF3SO3 and [3F]CF3SO3 were dissolved in water while the other compounds were dissolved in the minimum DMSO amount prior to cell culture testing. A calculated amount of the stock drug DMSO solution was added to the cell culture media to reach a final maximum DMSO concentration of 0.5 %, which had no effects on cell viability.
(§11) Cell cultures. Human colon (HCT‐15), pancreatic (PSN‐1) and breast (MCF‐7) carcinoma cell lines along with human melanoma cells (A375) were obtained from American Type Culture Collection (ATCC, Rockville, MD). Embryonic kidney HEK293 cells were obtained from the European Collection of Cell Cultures (ECACC, Salisbury, UK). Human ovarian 2008 cancer cells were kindly provided by Prof. G. Marverti (Dept. of Biomedical Science of Modena University, Italy). MCF‐7 ADR cells were kindly provided by Prof. N. Colabufo (Dept. Pharmacy, University of Bari, Italy). Cell lines were maintained in the logarithmic phase at 37 °C in a 5 % CO2 atmosphere using the following culture media containing 10 % fetal calf serum (Euroclone, Milan, Italy), antibiotics (50 units/mL penicillin and 50 μg/mL streptomycin) and 2 mM L‐glutamine: i) RPMI‐1640 medium (Euroclone, Milan, Italy) for PSN‐1, 2008, HCT‐15, MCF‐7 and MCF‐7 ADR cells; ii) DMEM for A375 and HEK293 cells.
(§12) MTT assay. The growth inhibitory effect towards tumour cells was evaluated by means of MTT assay as previously described.[57] Briefly, 3–8×10^3 cells/well, dependent upon the growth characteristics of the cell line, were seeded in 96‐well microplates in growth medium (100 μL). After 24 h, the medium was removed and replaced with a fresh one containing the compound to be studied at the appropriate concentration. Triplicate cultures were established for each treatment. After 24 or 72 h, each well was treated with 10 μL of a 5 mg/mL MTT saline solution, and following 5 h of incubation, 100 μL of a sodium dodecyl sulfate (SDS) solution in HCl 0.01 M were added. After an overnight incubation, cell growth inhibition was detected by measuring the absorbance of each well at 570 nm using a Bio‐Rad 680 microplate reader. Mean absorbance for each drug dose was expressed as a percentage of the control untreated well absorbance and plotted against drug concentration. IC50 values, the drug concentrations that reduce the mean absorbance at 570 nm to 50 % of those in the untreated control wells, were calculated by the four‐parameter logistic (4‐PL) model. Evaluation was based on means from at least four independent experiments.

[6] = system: Human breast (MCF‐7) carcinoma cell line; assay: MTT assay, 2D cell culture; format: cell-based; details: 72 h
Protocol: as §10, §11, §12

[7] = system: 3D cell spheroids of human ovarian (2008) cancer cells; assay: Acid phosphatase (APH) assay, 3D spheroid culture; format: cell-based; details: 2008 cell line
[8] = system: Human ovarian 2008 cancer cells; assay: MTT assay, 2D cell culture; format: cell-based; details: 2008 cells, 72 h
Protocol: as §10, §11, §12

[9] = system: Human colon (HCT‐15) carcinoma cell line; assay: MTT assay, 2D cell culture; format: cell-based; details: HCT‐15 cells, 72 h
Protocol: as §10, §11, §12

[10] = system: human melanoma cells (A375); assay: MTT assay, 2D cell culture; format: cell-based; details: 72 h
Protocol: as §10, §11, §12

[11] = system: Human pancreatic (PSN‐1) carcinoma cell line; assay: MTT assay, 2D cell culture; format: cell-based; details: PSN‐1 cells, 72 h, read-out: IC50 (μM)±SD
Protocol: as §10, §11, §12

[12] = system: Embryonic kidney HEK293 cells; assay: MTT assay, noncancerous cell line; format: cell-based, human; details: 72 h
Protocol: As one of the main drawbacks of chemotherapeutics is the toxic effect toward noncancerous cells, we measured the cytotoxicity of tested complexes against a noncancerous cell line (HEK293) and calculated the selectivity index (SI, defined as the ratio between the IC50 value in noncancerous cells and the corresponding average IC50 value related to cancer cells; Table 5).
as §10, §11, §12

[13] = Solubility pattern of the isolated compound (qualitative); format: physicochemical; details: isolated solid

Compound: O=C1C=CC(=O)c2ccccc21 [Naphthoquinone, reference compound]
logP at 30 min [5]: 1.8 ± 0.2

Compound: [Fe2Cp2(CO)2(μ‐CO){μ‐CNMe(C6H11)}]X [[2C]Cl]
% starting material (24 h) [3]: 88%
% starting material (72 h) [4]: 79%
Log P ow ([5]; octanol/water, 21 °C): −1.1±0.08

Compound: N.N.[Cl][Pt][Cl] [cisplatin, reference compound]
IC50 ratio related to 3D and 2D experiments [7]: 26
IC50 [8]: 2.2 ± 1.4 µM
IC50 [9]: 16.5 ± 2.2 µM
IC50 [10]: 2.1 ± 0.3 µM
IC50 [11]: 12.1 ± 2.9 µM
IC50 ([6]; MCF‐7 cells): 8.8 ± 0.2 µM
IC50 ([12]; HEK293 noncancerous cells, MTT): 18.1 ± 3.6 µM
SI (selectivity index) ([12]; IC50 in noncancerous HEK293 cells / average IC50 in cancer cells): 2.2
IC50 [1]: 61.7 ± 12.1 µM
IC50 [2]: 57.6 ± 3.6 µM

Compound: [Fe2Cp2(CO)2(μ‐CO){μ‐CNMe(CH2CHCH2)}]X [[3F]I]
Solubility in water (qualitative) [13]: poorly soluble

Compound: [Fe2Cp2(CO)2(μ‐CO){μ‐CNMe(2‐naphthyl)}]I [[3G]I]
Solubility in water (qualitative) [13]: sparingly soluble

Results, then the compound that gave them:

IC50±SD (μM) [1]: ineffective
IC50±SD (μM) [2]: ineffective
Compound: [Fe2Cp2(CO)2(μ‐CO){μ‐CNMe(CH2PO3Et2)}]X [[2B]CF3SO3]

% starting material (24 h) [3]: 84%
% starting material (72 h) [4]: 60%
Compound: [Fe2Cp2(CO)2(μ‐CO){μ‐CNMe(CH2CHCH2)}]X [[3F]X]

IC50 (MCF‐7 ADR cells; Homo sapiens, NCI/ADR-RES, MCF‐7 ADR cells, 72 h, MTT): 7.8 ± 2.2 µM
RF=IC50 (resistant cells)/IC50 (wild‐type cells) (MCF‐7 ADR cells; MCF‐7 ADR vs MCF‐7, 72 h): 39
IC50 ([6]; Homo sapiens, MCF7, MCF‐7 cells): 0.2 ± 0.03 µM
Compound: COc1cccc2c1C(=O)c1c(O)c3c(c(O)c1C2=O)C[C@@](O)(C(=O)CO)C[C@@H]3O[C@H]1C[C@H](N)[C@H](O)[C@H](C)O1 [doxorubicin, reference compound]
